The text below walks through data of patent publication US10624347B2, “Herbicidal composition and method for controlling weeds” (Sumitomo Chemical Company, Limited, priority 2016, dated 2020).

One test relates to Echinochloa crus-galli. In words: Foliar spray on potted weeds at two to three leaf stage in greenhouse, herbicidal effect (Example 101). Type of test: in vivo, inubie (common barnyardgrass; Echinochloa crus-galli). The conditions noted are these: one week after spray. Here is the method: (§1) A plastic pot was filled with a commercially-available culture soil, and thereto inubie (common barnyardgrass; Echinochloa crus-galli) or akinoenokorogusa (giant foxtail; Setaria faberi) was seeded, and covered with the soil to about 0.5 cm, followed by growing the weeds in a greenhouse. When the weeds grew to two to three leaf stage, a spray liquid of the compound X, a spray liquid of pyroxasulfone, or a spray liquid of the present composition was uniformly sprayed to the whole plants so that the application rate might be a predetermined value. The spray liquid of the present composition was prepared by mixing the spray liquid of the compound X with the spray liquid of pyroxasulfone. The spray liquid of the compound X was prepared by mixing a predetermined amount of the formulation X with deionized water. The spray liquid of pyroxasulfone was prepared by dissolving pyroxasulfone with a 2 wt % solution of TWEEN® (polyoxyethylenesorbitan fatty acid ester, manufactured by MP Biomedicals) in dimethylformamide, followed by mixing with deionized water. After applying the spray liquid, the plants were placed in a greenhouse for a week. A herbicidal effect was evaluated by classifying the effect into 101 stages from 0 (no effect) to 100 (completely dead).
(§2) The expected value of the herbicidal effect in the case of mixed use was calculated from the result of the herbicidal effect in the case of single use of each of the compounds (the value of A or B) according to the formula of Colby ((expected value)=100−(100−A)×(100−B)/100).

Another test relates to Setaria faberi. The test is described as above. Type of test: in vivo, akinoenokorogusa (giant foxtail; Setaria faberi). The conditions noted are these: one week after spray. Here is the method:
as §1, §2

[1] abbreviates: Compound X 5 g/ha alone, scale 0 (no effect) to 100 (completely dead).
Where [2] appears, read: Compound X 10 g/ha alone, scale 0 to 100.
[3] abbreviates: pyroxasulfone 10 g/ha alone, scale 0 to 100.
[4] abbreviates: pyroxasulfone 100 g/ha alone, scale 0 to 100.

In the case of `CCOC(=O)COc1ncccc1Oc1cc(-n2c(=O)cc(C(F)(F)F)n(C)c2=O)c(F)cc1Cl` [Compound X, ethyl [3-[2-chloro-4-fluoro-5-(1-methyl-6-trifluoromethyl-2,4-dioxo-1,2,3,4-tetrahydropyrimidin-3-yl)phenoxy]-2-pyridyloxy]acetate], the “Herbicidal effect on Echinochloa crus-galli (observed value)” value in the test with Echinochloa crus-galli (setting [1]) amounted to 20; in the test on Echinochloa crus-galli (setting [2]), 35. The “Herbicidal effect on Setaria faberi (observed value)” value with Setaria faberi (setting [1]) stood at 30; in the test on Setaria faberi (setting [2]), 45.

Turning to `Cn1nc(C(F)(F)F)c(CS(=O)(=O)C2=NOC(C)(C)C2)c1OC(F)F` [pyroxasulfone], the “Herbicidal effect on Echinochloa crus-galli (observed value)” value with Echinochloa crus-galli (setting [3]) and with Echinochloa crus-galli (setting [4]) was 0 in each case. Besides, the “Herbicidal effect on Setaria faberi (observed value)” value with Setaria faberi (setting [3]) and with Setaria faberi (setting [4]) was 0 throughout.
